Toxic doses and inconclusive results are not listed.

Among the data in PubChem BioAssay AID248 (DTP/NCI, 2004) are T/C values, retold here.

In the assay the test system is L1210 leukemia ip in BDF1 mice, survival T/C. Put plainly: NCI In Vivo Anticancer Drug Screen. Data for tumor model L1210 Leukemia (intraperitoneal) in B6D2F1 (BDF1) mice. Conditions: endpoint: mean survival time, higher = longer survival. In short, it runs like this:
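Tumor cells were implanted, animals were treated, and survival was followed. The result divides the treated measurement by the vehicle-control measurement.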

The mark [1] stands for this setting: dose: 100.0 mg/kg/injection, schedule: Q01DX001 (ip), vehicle: saline.
Where [2] appears, read: dose: 200.0 mg/kg/injection, schedule: Q01DX001 (ip), vehicle: saline.
The mark [3] stands for this setting: dose: 100.0 mg/kg/injection, schedule: Q04DX002 (ip), vehicle: Klucel (hydroxypropylcellulose) (HPC).
[4] abbreviates: dose: 200.0 mg/kg/injection, schedule: Q04DX002 (ip), vehicle: Klucel (hydroxypropylcellulose) (HPC).
The mark [5] stands for this setting: dose: 400.0 mg/kg/injection, schedule: Q04DX002 (ip), vehicle: Klucel (hydroxypropylcellulose) (HPC).
Setting [6] is: dose: 100.0 mg/kg/injection, schedule: Q04DX003 (ip), vehicle: Klucel (hydroxypropylcellulose) (HPC).
The mark [7] stands for this setting: dose: 200.0 mg/kg/injection, schedule: Q04DX003 (ip), vehicle: Klucel (hydroxypropylcellulose) (HPC).
Where [8] appears, read: dose: 400.0 mg/kg/injection, schedule: Q04DX003 (ip), vehicle: Klucel (hydroxypropylcellulose) (HPC).
Setting [9] is: dose: 100.0 mg/kg/injection, schedule: Q04DX002 (ip), vehicle: saline.
[10] abbreviates: dose: 200.0 mg/kg/injection, schedule: Q04DX002 (ip), vehicle: saline.
Where [11] appears, read: dose: 25.0 mg/kg/injection, schedule: Q01DX009 (ip), vehicle: Klucel (hydroxypropylcellulose) (HPC).
The mark [12] stands for this setting: dose: 50.0 mg/kg/injection, schedule: Q01DX009 (ip), vehicle: Klucel (hydroxypropylcellulose) (HPC).
Setting [13] is: dose: 400.0 mg/kg/injection, schedule: Q01DX001 (ip), vehicle: saline.
The mark [14] stands for this setting: dose: 75.0 mg/kg/injection, schedule: Q01DX001 (ip), vehicle: saline.

For the compound `CCC(C)CC(C)c1ccncc1` (stereo unspecified), the T/C (dose: 5.0 mg/kg/injection, schedule: Q01DX001 (ip), vehicle: saline) was 97 % of control; the T/C (dose: 10.0 mg/kg/injection, schedule: Q01DX001 (ip), vehicle: saline) was 100 % of control; the T/C (dose: 20.0 mg/kg/injection, schedule: Q01DX001 (ip), vehicle: saline) is 100 % of control; the T/C (dose: 40.0 mg/kg/injection, schedule: Q01DX001 (ip), vehicle: saline) is 97 % of control; the T/C (dose: 80.0 mg/kg/injection, schedule: Q01DX001 (ip), vehicle: saline) is 97 % of control; the T/C under setting [1] is 97 % of control.

Consider `Cc1ccccc1/C=N/NC(=O)c1cccc2ccccc12`, for which the T/C under setting [1] is 89 % of control and the T/C under setting [2] was 100 % of control.

For `O=C(COc1ccccc1)Nc1ccc(Br)cc1`, the T/C was 103 % of control under setting [3], 103 % of control under setting [4] and 95 % of control under setting [5].

For the compound `O=c1[nH]nc2ccccn12`, the T/C was 96 % of control (dose: 100.0 mg/kg/injection, schedule: Q01DX001 (ip), vehicle: Klucel (hydroxypropylcellulose) (HPC)); 101 % of control under setting [6]; 102 % of control (dose: 200.0 mg/kg/injection, schedule: Q01DX001 (ip), vehicle: Klucel (hydroxypropylcellulose) (HPC)); 101 % of control under setting [7]; 96 % of control (dose: 400.0 mg/kg/injection, schedule: Q01DX001 (ip), vehicle: Klucel (hydroxypropylcellulose) (HPC)); 95 % of control under setting [8].

Regarding `CCN=C(N)C(C)SS(=O)(=O)O` (stereo unspecified), the T/C is, setting by setting: under setting [9], 106 % of control; under setting [10], 98 % of control.

As for `S=C(NCc1ccc(Cl)c(Cl)c1)NCc1ccc(Cl)c(Cl)c1`, the T/C by setting is: under setting [11], 103 % of control; under setting [12], 101 % of control.

Regarding `COc1ccc(S(=O)(=O)Nc2cc(Cl)ccc2Cl)cc1`, the T/C was 92 % of control (dose: 100.0 mg/kg/injection, schedule: Q01DX009 (ip), vehicle: saline with Tween-80); 103 % of control (dose: 200.0 mg/kg/injection, schedule: Q01DX009 (ip), vehicle: saline with Tween-80); 95 % of control (dose: 400.0 mg/kg/injection, schedule: Q01DX009 (ip), vehicle: saline with Tween-80).

With `O=NN(CCF)C(=O)NC12CC3CC(CC(C3)C1)C2`, the T/C (dose: 40.0 mg/kg/injection, schedule: Q01DX001 (ip), vehicle: carboxymethylcellulose (CMC)) is 124 % of control; the T/C (dose: 60.0 mg/kg/injection, schedule: Q01DX001 (ip), vehicle: carboxymethylcellulose (CMC)) is 190 % of control; the T/C (dose: 93.0 mg/kg/injection, schedule: Q01DX001 (ip), vehicle: carboxymethylcellulose (CMC)) is 192 % of control; the T/C (dose: 187.0 mg/kg/injection, schedule: Q01DX001 (ip), vehicle: carboxymethylcellulose (CMC)) was 259 % of control.

As for `O=COC1CC2CCC1C2` (stereo unspecified), the T/C was 95 % of control under setting [9]; 98 % of control under setting [10]; 100 % of control (dose: 400.0 mg/kg/injection, schedule: Q04DX002 (ip), vehicle: saline).

For `O=C(CS(=O)(=O)Cc1ccccc1)N1CCOCC1`, the T/C is 95 % of control under setting [1]; 93 % of control under setting [2]; 89 % of control (dose: 200.0 mg/kg/injection, schedule: Q01DX009 (ip), vehicle: saline); 93 % of control under setting [13]; 102 % of control (dose: 400.0 mg/kg/injection, schedule: Q01DX009 (ip), vehicle: saline).

`CCCCCC(NC(=O)CCl)C(=O)O` (stereo unspecified): the T/C was 91 % of control (dose: 100.0 mg/kg/injection, schedule: Q01DX009 (ip), vehicle: Klucel (hydroxypropylcellulose) (HPC)); 96 % of control (dose: 200.0 mg/kg/injection, schedule: Q01DX009 (ip), vehicle: Klucel (hydroxypropylcellulose) (HPC)); 92 % of control (dose: 400.0 mg/kg/injection, schedule: Q01DX009 (ip), vehicle: Klucel (hydroxypropylcellulose) (HPC)).

For the compound `COc1ccc2c(c1O)C13C=C(C)C(=O)CC1C(C2)N(C)CC3` (stereo unspecified), the T/C under setting [14] was 106 % of control.

Turning to `Cc1ccc(OC(=O)NC(C)(C)C)cc1`, the T/C runs as follows: under setting [3], 105 % of control; under setting [4], 109 % of control; under setting [5], 105 % of control.

On to `O=C(O)c1c(O)cc(=O)oc1-c1ccc(Cl)cc1Cl`, for which the T/C runs as follows: under setting [14], 101 % of control; (dose: 150.0 mg/kg/injection, schedule: Q01DX001 (ip), vehicle: saline) 101 % of control; (dose: 300.0 mg/kg/injection, schedule: Q01DX001 (ip), vehicle: saline) 106 % of control.

Regarding `CSCCC(O)C(=O)O` (stereo unspecified), the T/C was 101 % of control under setting [1], 95 % of control under setting [2] and 101 % of control under setting [13].

Consider `Cc1nc2ccccc2cc1C#N`, for which the T/C is, setting by setting: (dose: 100.0 mg/kg/injection, schedule: Q01DX001 (ip), vehicle: carboxymethylcellulose (CMC)) 118 % of control; (dose: 200.0 mg/kg/injection, schedule: Q01DX001 (ip), vehicle: carboxymethylcellulose (CMC)) 118 % of control; (dose: 400.0 mg/kg/injection, schedule: Q01DX001 (ip), vehicle: carboxymethylcellulose (CMC)) 108 % of control.

As to `CC(C)=CCC(CCN(C)C)(C(N)=O)c1cccc2ccccc12` (stereo unspecified), the T/C by setting is: (dose: 5.0 mg/kg/injection, schedule: Q01DX009 (ip), vehicle: Klucel (hydroxypropylcellulose) (HPC)) 102 % of control; (dose: 5.0 mg/kg/injection, schedule: Q04DX003 (ip), vehicle: Klucel (hydroxypropylcellulose) (HPC)) 94 % of control; (dose: 10.0 mg/kg/injection, schedule: Q01DX009 (ip), vehicle: Klucel (hydroxypropylcellulose) (HPC)) 93 % of control; (dose: 10.0 mg/kg/injection, schedule: Q04DX003 (ip), vehicle: Klucel (hydroxypropylcellulose) (HPC)) 91 % of control; (dose: 20.0 mg/kg/injection, schedule: Q01DX009 (ip), vehicle: Klucel (hydroxypropylcellulose) (HPC)) 91 % of control; (dose: 20.0 mg/kg/injection, schedule: Q04DX003 (ip), vehicle: Klucel (hydroxypropylcellulose) (HPC)) 96 % of control.

As for `CCCC1OC1CCC` (stereo unspecified), the T/C runs as follows: (dose: 100.0 mg/kg/injection, schedule: Q04DX003 (ip), vehicle: saline with Tween-80) 109 % of control; (dose: 200.0 mg/kg/injection, schedule: Q04DX003 (ip), vehicle: saline with Tween-80) 97 % of control; (dose: 400.0 mg/kg/injection, schedule: Q04DX003 (ip), vehicle: saline with Tween-80) 91 % of control.

For the compound `CCCC[P+](c1ccccc1)(c1ccccc1)c1ccccc1`, the T/C by setting is: (dose: 6.25 mg/kg/injection, schedule: Q04DX003 (ip), vehicle: saline) 107 % of control; (dose: 12.5 mg/kg/injection, schedule: Q01DX009 (ip), vehicle: Klucel (hydroxypropylcellulose) (HPC)) 114 % of control; (dose: 12.5 mg/kg/injection, schedule: Q01DX009 (ip), vehicle: saline) 113 % of control; (dose: 12.5 mg/kg/injection, schedule: Q04DX003 (ip), vehicle: saline) 107 % of control; under setting [11], 112 % of control; (dose: 25.0 mg/kg/injection, schedule: Q01DX009 (ip), vehicle: saline) 115 % of control. In addition, the T/C is, setting by setting: (dose: 25.0 mg/kg/injection, schedule: Q04DX003 (ip), vehicle: saline) 105 % of control; under setting [12], 109 % of control; (dose: 50.0 mg/kg/injection, schedule: Q04DX003 (ip), vehicle: saline) 104 % of control.

As for `CC(=O)OC1CCC2(C)C(=CCC3C2CCC2(C)C3CC3OC4(CCC(C)CN4C(C)=O)C(C)C32)C1` (stereo unspecified), the T/C was 98 % of control (dose: 100.0 mg/kg/injection, schedule: Q01DX001 (ip), vehicle: saline with Tween-80); 95 % of control (dose: 200.0 mg/kg/injection, schedule: Q01DX001 (ip), vehicle: saline with Tween-80); 95 % of control (dose: 400.0 mg/kg/injection, schedule: Q01DX001 (ip), vehicle: saline with Tween-80).

Take `CCn1c(=O)c2ccccc2c2cc([N+](=O)[O-])ccc21`: the T/C reads like this: under setting [6], 90 % of control; under setting [7], 97 % of control; under setting [8], 97 % of control.
